Measurements taken from patent publication EP0726764B1, “MULTILAMELLAR LIPOSOMAL ARACHIDONIC ACID METABOLITE FORMULATIONS” (THE LIPOSOME COMPANY, INC., priority 1993, dated 1995).
Read-outs that look alike come from different tables or passages of the source.

What was measured:
[1] = cited from earlier work
[2] = tested on: infarct size; conditions: continuous arterial infusion over a six-hour period, free (non-liposomal); cited from earlier work
[3] = tested on: leukocyte extravasation from the peripheral vasculature to sites of inflammation; assay: Rat subcutaneous air pouch, fMLP-induced inflammation; format: in vivo, Male Sprague-Dawley rats; conditions: visual examination of post-stimulation air pouch lining
Description: • Figure 1. Release of PGE1 from MLVs. The release of prostaglandin E1 (PGE1) from multilamellar vesicles (MLVs) comprising egg phosphatidylcholine (EPC) or dipalmitoyl phosphatidylcholine (DPPC) formed in 50 mM citrate buffer, pH 4.5, and then incubated at room temperature in pH 7.1 buffer for the indicated amount of time, is set forth. X-axis: time (minutes); y-axis: percent PGE1 retained in pelleted liposomes. • Figure 2. Rat Air Pouch Studies. Liposomal PGE1 formulations inhibit the extravasation of leukocytes from the vasculature to the rat air pouch. Subcutaneous air pouches were formed in male Sprague-Dawley rats. fMLP (2.15 µg) was injected directly into the air pouch at time 0, and free or liposomal PGE1 was simultaneously injected intravenously. After six hours, the air pouch exudate was collected and the air pouch total cell population determined. For each treatment group, n=4. […] After six hours, the air pouch exudate was collected, and the air pouch total cell population determined. […] After six hours, the air pouch exudate was collected, and the air pouch total cell population determined. […] After six and 24 hours, the air pouch exudates were collected, and the air pouch total cell populations were determined. […]

[4] = tested on: adjuvant arthritis; assay: Rat adjuvant arthritis (complete Freund's adjuvant); format: in vivo, Male Lewis rats
[5] = tested on: LPS-induced death; assay: Rat endotoxemia model, LPS-induced mortality; format: in vivo, Male Sprague-Dawley rats; conditions: 50 µg/kg LPS i.v. at time 0, PGE1 40 µg/kg i.v. simultaneously
[6] = tested on: restenosis; conditions: intracoronary infusion over a 24-hour period; cited from earlier work
[7] = tested on: acute myocardial infarction; conditions: slow intracoronary infusion together with intracoronary streptokinase; cited from earlier work

Row | SMILES | bioavailability ([1]; free stable prostaglandin analog) [h] | reducing the infarct size [2] | vascular reactivity and number of leukocytes invading the pouch lining [3] | bioavailability ([1]; free PGE1) [h] | inhibition of arthritis progression, treatment begun 10 days post-adjuvant ([4]; 10 µg/kg beginning at day 10, every second day) | progression of adjuvant arthritis (weight gain, joint edema) ([4]; 10 µg/kg, injections every second day) | subjective scoring of general health and mobility ([4]; 10 µg/kg, scored at day 14) | LPS induced mortality [5] | reduction of the rate of restenosis six months after angioplasty versus untreated control group [6] [%] | clinical results versus intracoronary streptokinase alone [7]
1 | CCCCCC(C)(O)/C=C/[C@H]1[C@H](O)CC(=O)[C@@H]1CCCCCCC(=O)O (some centres unmarked) [15-methyl-PGE1] | ≥ 8 | – | – | – | – | – | – | – | – | –
2 | CCCCC[C@H](O)/C=C/[C@@H]1[C@H]2C/C(=C/CCCC(=O)O)O[C@H]2C[C@H]1O [PGI2] | – | scant effect | – | – | – | – | – | – | – | –
3 | CCCCC[C@H](O)/C=C/[C@H]1[C@H](O)CC(=O)[C@@H]1CCCCCCC(=O)O [free PGE1, prostaglandin E1] | – | scant effect | reduction in vascular reactivity and a concurrent reduction in the number of leukocytes invading the pouch lining | < 0.25 | still receive protection horn disease progression, although the inhibition of arthritis progression was not as profound | attenuated the progression of adjuvant arthritis | maintenance of general health and mobility | increased both the rate and magnitude of LPS induced mortality | ~50 | positive clinical results
